Reference: patent US20210283107A1, “Methods to Expand the Spectrum of Gram-Positive Antibiotics” (NORTH CAROLINA STATE UNIVERSITY, priority 2016, published 2021)
Values after ≈ are worked out from the molar mass of the structure shown. Where two headings read alike, the source gives them in different places.

What was measured:
A. baumannii strain 3927 = assay: Potentiation of clarithromycin and vancomycin against clinical isolate; type: cell-based, Acinetobacter baumannii; conditions: with compound at 30 μM
Method: (§1) As previously stated, A. baumannii 5075 was chosen for these studies due to its virulence and multidrug resistance, but to further analyze the activity of our lead compounds, 23 A. baumannii clinical isolates obtained from Walter Reed Army Institute of Research (WRAIR) were tested.
(§2) Day Cultures (6 h) were subcultured to 5×10^5 CFU/mL in cation adjusted Mueller-Hinton broth (CAMHB). […] One milliliter of the resulting solution was aliquoted into a separate culture tube and was dosed with antibiotic so that the resulting concentration was the highest desirable concentration to be tested. Bacteria treated with antibiotic alone were used as a control. Row one of a 96-well plate was filled with 200 μL of the antibiotic/compound solution, and the remaining rows were filled with 100 μL of the remaining 4 mL bacterial subculture. The wells in row one were mixed five times before 100 μL was transferred to the following row (row two). Row two was then mixed five times, and 100 μL was transferred to row three. This process was repeated until the second to last row had been reached. The last row is left unexposed to antibiotic in order to serve as a negative control. The antibiotic only treated bacteria was plated by aliquoting 200 μL of the treated bacteria into row one and filling the remaining rows with untreated bacteria from the original bacteria subculture. The rows were mixed in the same way as described above. Plates were covered with Glad Press n'Seal and were incubated under stationary conditions at 37° C. for 16 hours. MIC values were recorded as the lowest concentration at which no bacterial growth was observed. Fold reductions were determined by comparison of the compound treated wells with the antibiotic only treated control wells.

A. baumannii strain 5711 = assay: as above; type: cell-based, Acinetobacter baumannii; conditions: with compound at 30 μM
Method: as §1, §2

A. baumannii strain 4857 = assay: as above; type: cell-based, Acinetobacter baumannii; conditions: with compound at 30 μM
Method: as §1, §2

A. baumannii strain 4878 = assay: as above; type: cell-based, Acinetobacter baumannii; conditions: with compound at 30 μM
Method: as §1, §2

A. baumannii strain 4448 = assay: as above; type: cell-based, Acinetobacter baumannii; conditions: with compound at 30 μM
Method: as §1, §2

A. baumannii strain 4269 = assay: as above; type: cell-based, Acinetobacter baumannii; conditions: with compound at 30 μM
Method: as §1, §2

A. baumannii strain 4052 = assay: as above; type: cell-based, Acinetobacter baumannii; conditions: with compound at 30 μM
Method: as §1, §2

A. baumannii strain 5197 = assay: as above; type: cell-based, Acinetobacter baumannii; conditions: with compound at 30 μM
Method: as §1, §2

A. baumannii strain 3560 = assay: as above; type: cell-based, Acinetobacter baumannii; conditions: with compound at 30 μM
Method: as §1, §2

A. baumannii strain 4456 = assay: as above; type: cell-based, Acinetobacter baumannii; conditions: with compound at 30 μM
Method: as §1, §2

A. baumannii strain 5001 = assay: as above; type: cell-based, Acinetobacter baumannii; conditions: with compound at 30 μM
Method: as §1, §2

A. baumannii strain 3806 = assay: as above; type: cell-based, Acinetobacter baumannii; conditions: with compound at 30 μM
Method: as §1, §2

A. baumannii strain 4025 = assay: as above; type: cell-based, Acinetobacter baumannii; conditions: with compound at 30 μM
Method: as §1, §2

A. baumannii strain 4957 = assay: as above; type: cell-based, Acinetobacter baumannii; conditions: with compound at 30 μM
Method: as §1, §2

A. baumannii strain 4795 = assay: as above; type: cell-based, Acinetobacter baumannii; conditions: with compound at 30 μM
Method: as §1, §2

A. baumannii strain 8967 = assay: as above; type: cell-based, Acinetobacter baumannii; conditions: with compound at 30 μM
Method: as §1, §2

A. baumannii strain 5256 = assay: as above; type: cell-based, Acinetobacter baumannii; conditions: with compound at 30 μM
Method: as §1, §2

A. baumannii strain 4991 = assay: as above; type: cell-based, Acinetobacter baumannii; conditions: with compound at 30 μM
Method: as §1, §2

A. baumannii strain 3785 = assay: as above; type: cell-based, Acinetobacter baumannii; conditions: with compound at 30 μM
Method: as §1, §2

A. baumannii strain 4026 = assay: as above; type: cell-based, Acinetobacter baumannii; conditions: with compound at 30 μM
Method: as §1, §2

A. baumannii strain 4490 = assay: as above; type: cell-based, Acinetobacter baumannii; conditions: with compound at 30 μM
Method: as §1, §2

A. baumannii strain 4498 = assay: as above; type: cell-based, Acinetobacter baumannii; conditions: with compound at 30 μM
Method: as §1, §2

A. baumannii strain 4027 = assay: as above; type: cell-based, Acinetobacter baumannii; conditions: with compound at 30 μM
Method: as §1, §2

[1] = test system: A. baumannii strain 5075 (AB5075); assay: Broth microdilution MIC determination of compound alone; type: cell-based; conditions: Acinetobacter baumannii
Summary of the method: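 MIC by twofold serial dilution in cation-adjusted Mueller-Hinton broth, inoculum 5×10^5 CFU/mL from 6 h day cultures, top concentration 200 μM (64 μg/mL). Incubated stationary at 37° C. for 16 hours; MIC taken as lowest concentration with no visible growth.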

## Nc1nc(-c2ccc(NC(=O)c3cc(Cl)cc(Cl)c3)cc2)c[nH]1 [Compound 1]
A. baumannii strain 3927
  Clarithromycin MIC: 0.5 µg/mL
  Vancomycin MIC: 8 µg/mL
A. baumannii strain 5711
  Clarithromycin MIC: 0.5 µg/mL
  Vancomycin MIC: 8 µg/mL
A. baumannii strain 4857
  Clarithromycin MIC: 0.5 µg/mL
  Vancomycin MIC (μg/mL): Toxic
A. baumannii strain 4878
  Clarithromycin MIC: 0.5 µg/mL
  Vancomycin MIC: 2 µg/mL
A. baumannii strain 4448
  Clarithromycin MIC: ≤0.25 µg/mL
  Vancomycin MIC: 1 µg/mL
A. baumannii strain 4269
  Clarithromycin MIC: ≤0.25 µg/mL
  Vancomycin MIC: 2 µg/mL
A. baumannii strain 4052
  Clarithromycin MIC: ≤0.25 µg/mL
  Vancomycin MIC: 4 µg/mL
A. baumannii strain 5197
  Clarithromycin MIC: 0.5 µg/mL
  Vancomycin MIC: 16 µg/mL
A. baumannii strain 3560
  Clarithromycin MIC: 0.5 µg/mL
  Vancomycin MIC: 0.5 µg/mL
A. baumannii strain 4456
  Clarithromycin MIC: 0.5 µg/mL
  Vancomycin MIC: 16 µg/mL
A. baumannii strain 5001
  Clarithromycin MIC: 0.5 µg/mL
  Vancomycin MIC: 2 µg/mL
A. baumannii strain 3806
  Clarithromycin MIC: 0.25 µg/mL
  Vancomycin MIC: 2 µg/mL
A. baumannii strain 4025
  Clarithromycin MIC: 0.25 µg/mL
  Vancomycin MIC: 2 µg/mL
A. baumannii strain 4957
  Clarithromycin MIC: 0.5 µg/mL
  Vancomycin MIC: 8 µg/mL
A. baumannii strain 4795
  Clarithromycin MIC: 0.5 µg/mL
  Vancomycin MIC: 4 µg/mL
A. baumannii strain 8967
  Clarithromycin MIC: 0.25 µg/mL
  Vancomycin MIC: 4 µg/mL
A. baumannii strain 5256
  Clarithromycin MIC: 0.25 µg/mL
  Vancomycin MIC: 2 µg/mL
A. baumannii strain 4991
  Clarithromycin MIC: 0.5 µg/mL
  Vancomycin MIC: 32 µg/mL
A. baumannii strain 3785
  Clarithromycin MIC: 0.5 µg/mL
  Vancomycin MIC: 1 µg/mL
A. baumannii strain 4026
  Clarithromycin MIC: 0.5 µg/mL
  Vancomycin MIC: 2 µg/mL
A. baumannii strain 4490
  Clarithromycin MIC: 0.5 µg/mL
  Vancomycin MIC: 1 µg/mL
A. baumannii strain 4498
  Clarithromycin MIC: ≤0.25 µg/mL
  Vancomycin MIC: 1 µg/mL
A. baumannii strain 4027
  Clarithromycin MIC: ≤0.25 µg/mL
  Vancomycin MIC: 1 µg/mL
[1]
  MIC: 100 µM (≈ 34.7 µg/mL)

## Nc1nc(-c2ccc(NC(=O)c3cc(Br)cc(Br)c3)cc2)c[nH]1 [Compound 4]
A. baumannii strain 3927
  Clarithromycin MIC: 0.5 µg/mL
  Vancomycin MIC: 64 µg/mL
A. baumannii strain 5711
  Clarithromycin MIC: 0.5 µg/mL
  Vancomycin MIC: 64 µg/mL
A. baumannii strain 4857
  Clarithromycin MIC: 0.5 µg/mL
  Vancomycin MIC (μg/mL): Toxic
A. baumannii strain 4878
  Clarithromycin MIC: 1 µg/mL
  Vancomycin MIC: 1 µg/mL
A. baumannii strain 4448
  Clarithromycin MIC: ≤0.25 µg/mL
  Vancomycin MIC: 4 µg/mL
A. baumannii strain 4269
  Clarithromycin MIC: ≤0.25 µg/mL
  Vancomycin MIC: 64 µg/mL
A. baumannii strain 4052
  Clarithromycin MIC: ≤0.25 µg/mL
  Vancomycin MIC: 64 µg/mL
A. baumannii strain 5197
  Clarithromycin MIC: 0.5 µg/mL
  Vancomycin MIC: 8 µg/mL
A. baumannii strain 3560
  Clarithromycin MIC: 0.5 µg/mL
  Vancomycin MIC: 32 µg/mL
A. baumannii strain 4456
  Clarithromycin MIC: ≤0.25 µg/mL
  Vancomycin MIC: 64 µg/mL
A. baumannii strain 5001
  Clarithromycin MIC: 0.5 µg/mL
  Vancomycin MIC: 1 µg/mL
A. baumannii strain 3806
  Clarithromycin MIC: ≤0.125 µg/mL
  Vancomycin MIC: 32 µg/mL
A. baumannii strain 4025
  Clarithromycin MIC: 0.25 µg/mL
  Vancomycin MIC: 16 µg/mL
A. baumannii strain 4957
  Clarithromycin MIC: 0.5 µg/mL
  Vancomycin MIC: 8 µg/mL
A. baumannii strain 4795
  Clarithromycin MIC: 0.5 µg/mL
  Vancomycin MIC: 4 µg/mL
A. baumannii strain 8967
  Clarithromycin MIC: 0.25 µg/mL
  Vancomycin MIC: 8 µg/mL
A. baumannii strain 5256
  Clarithromycin MIC: 0.25 µg/mL
  Vancomycin MIC: 8 µg/mL
A. baumannii strain 4991
  Clarithromycin MIC: 0.5 µg/mL
  Vancomycin MIC: 32 µg/mL
A. baumannii strain 3785
  Clarithromycin MIC: 0.5 µg/mL
  Vancomycin MIC: 128 µg/mL
A. baumannii strain 4026
  Clarithromycin MIC: 1 µg/mL
  Vancomycin MIC: 16 µg/mL
A. baumannii strain 4490
  Clarithromycin MIC: ≤0.25 µg/mL
  Vancomycin MIC: 8 µg/mL
A. baumannii strain 4498
  Clarithromycin MIC: ≤0.25 µg/mL
  Vancomycin MIC: 16 µg/mL
A. baumannii strain 4027
  Clarithromycin MIC: 0.25 µg/mL
  Vancomycin MIC: 32 µg/mL
[1]; compound alone, AB5075, read-out: MIC
  MIC: 100 µM (≈ 43.6 µg/mL)
